Measured values reported in patent US6303639A, “Propanolamine derivatives substituted by heterocyclic radicals, processes for their preparation, pharmaceuticals comprising these compounds and their use” (Aventis Pharma Deutschland GmbH, priority 1998, dated 2001).

target: T1, Na+-dependent bile acid transportation system (intestinal bile acid transportation system in the terminal small intestine) (Oryctolagus cuniculus, UniProt Q28727); assay: Inhibition of Na+-dependent [3H]-taurocholate uptake in brush border membrane vesicles of the ileum of rabbits; type: biochemical; details: rabbit ileum brush border membrane vesicles, 50 μM taurocholate, usually 1 minute incubation
T1 construct: Brush border membrane vesicles from the intestinal cells of the small intestine were prepared by the so-called Mg^2+ precipitation method; from tissue; host or cells: brush border membrane vesicles from the terminal 7/10 of the small intestine (ileum) of male New Zealand rabbits
T1 sequence (Q28727 1-347): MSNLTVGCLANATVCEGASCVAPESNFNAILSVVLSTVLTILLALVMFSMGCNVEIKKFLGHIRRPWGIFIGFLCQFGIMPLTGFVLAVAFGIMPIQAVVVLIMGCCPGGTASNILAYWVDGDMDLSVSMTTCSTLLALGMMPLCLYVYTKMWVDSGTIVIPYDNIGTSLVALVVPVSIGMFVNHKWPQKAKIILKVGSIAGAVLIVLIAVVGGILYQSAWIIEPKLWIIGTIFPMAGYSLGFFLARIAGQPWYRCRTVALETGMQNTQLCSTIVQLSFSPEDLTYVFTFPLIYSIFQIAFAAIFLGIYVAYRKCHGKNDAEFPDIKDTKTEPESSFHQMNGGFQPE
Protocol: Biological testing of the compounds according to the invention was carried out by determining the inhibition of [^3 H]-taurocholate uptake in brush border membrane vesicles of the ileum of rabbits. The inhibition test was carried out as described below.
Test 1. Preparation of Brush Border Membrane Vesicles from the Ileum of Rabbits
Brush border membrane vesicles from the intestinal cells of the small intestine were prepared by the so-called Mg^2+ precipitation method as follows. Male New Zealand rabbits (2 to 2.5 kg body weight) were sacrificed by intravenous injection of 0.5 ml of T61®, an aqueous solution of 2.5 mg of tetracaine HCl, 100 mg of embutramide and 25 mg of mebezonium iodide. The small intestine was removed and flushed with ice-cold physiological saline solution. The terminal 7/10 of the small intestine (measured in the oral-rectal direction, i.e. the terminal ileum, which contains the active Na^+ -dependent bile acid transportation system) was used for preparation of the brush border membrane vesicles. The intestines were frozen in plastic bags under nitrogen at -80° C.
For preparation of the membrane vesicles, the frozen intestines were thawed at 30° C. in a water-bath. The mucosa were peeled off and suspended in 60 ml of ice-cold 12 mM TRIS-HCl buffer (pH 7.1)/300 mM mannitol, 5 mM EGTA/10 mg/l of phenylmethyl-sulfonyl fluoride/1 mg/l of trypsin inhibitor from soybeans (32 U/mg)/0.5 mg/l of trypsin inhibitor from the bovine lung (193 U/mg)/5 mg/l of bacitracin. After dilution to 300 ml with ice-cold distilled water, the mixture was homogenized with an Ultraturrax (18-rod, IKA Werk Staufen, Germany) for 3 minutes at 75% of the maximum power, while cooling with ice. After addition of 3 ml of 1 M MgCl2 solution (final concentration 10 mM), the mixture was left to stand for exactly 1 minute at 0° C. The cell membranes aggregated by addition of Mg^2+ and precipitated, with the exception of the brush border membranes. After centrifugation for 15 minutes at 3000×g (5000 rpm, SS-34 rotor), the precipitate was discarded and the supernatant, which contained the brush border membranes, was centrifuged at 48000×g (20000 rpm, SS-34 rotor) for 30 minutes. The supernatant was discarded and the precipitate was rehomogenized in 60 ml of 12 mM TRIS/HCI buffer (pH 7.1)/60 mM mannitol, 5 mM EGTA with a Potter Elvejhem homogenizer (Braun, Melsungen, 900 rpm, 10-stroke). After addition of 0.1 ml of 1 M MgCl2 solution and an incubation time of 15 minutes at 0° C., the mixture was centrifuged again at 3000×g for 15 minutes. The supernatant was then centrifuged again at 48000×g (20000 rpm, SS-34 rotor) for 30 minutes. The precipitate was taken up in 30 ml of 10 mM TRIS/HEPES buffer (pH 7.4)/300 mM mannitol and resuspended by 20 strokes in a Potter Elvejhem homogenizer at a 1000 rpm. After centrifugation at 48000×g (20000 rpm, SS-34 rotor) for 30 minutes, the precipitate was taken up in 0.5 to 2 ml of TRIS/HEPES buffer (pH 7.4)/280 mM mannitol (final concentration 20 mg/ml) and resuspended with the aid of a tuberculin syringe with a 27-gauge needle. The vesicles were either used for the transportation investigations directly after the preparation, or stored in 4 mg portions in liquid nitrogen at -196° C.
Test 2. Inhibition of the Na^+ -dependent [^3 H]Taurocholate Uptake in Brush Border Member Vesicles of the Ileum
The uptake of substrates into the brush border membrane vesicles described above was determined by means of the so-called membrane filtration technique. 10 μl of the vesicle suspension (100 μg of protein) were pipetted as drops onto the wall of a polystyrene incubation tube (11×70 mm) which contained the incubation medium with the corresponding ligands (90 μl). […]

SMILES | Biological Test: quotient of the IC50Na values of the reference substance taurochenodeoxycholate (TCDC) and of the test substance
OC(c1ccccc1)C(c1ccc2ccccc2n1)C(Nc1ccccn1)c1ccccc1 (stereo not shown) [Example 2] | 0.83
OC(c1nccs1)C(c1ccccc1)C(Nc1ccccn1)c1ccccc1 (stereo not shown) [Example 4] | 0.1
OC(c1ccccc1)C(c1cnc2ccccc2n1)C(Nc1ccccn1)c1ccccc1 (stereo not shown) [Example 6] | 0.57
OC(c1ccccc1)C(c1cnc2ccccc2n1)C(Nc1ccccn1)c1ccccc1 (stereo not shown) [Example 7] | 0.22
OC(c1ccccc1)C(c1cnc2ccccc2c1)C(Nc1ccccn1)c1ccccc1 (stereo not shown) [Example 9] | 0.35
OC(c1cnccn1)C(c1ccccn1)C(Nc1ccccn1)c1ccccc1 (stereo not shown) [Example 11] | 0.24
OC(c1cnccn1)C(c1ccccn1)C(Nc1ccccn1)c1ccccc1 (stereo not shown) [Example 12] | 0.24
Cc1nc(C)c(C(O)C(c2ccccn2)C(Nc2ccccn2)c2ccccc2)s1 (stereo not shown) [Example 14] | 0.66
OC(c1cnc2ccccc2c1)C(c1ccccn1)C(Nc1ccccn1)c1ccccc1 (stereo not shown) [Example 18] | 0.37
OC(c1cnc2ccccc2c1)C(c1ccccn1)C(Nc1ccccn1)c1ccccc1 (stereo not shown) [Example 19] | 0.42
OC(c1cnc2ccccc2c1)C(c1ccccn1)C(Nc1ccccn1)c1ccccc1 (stereo not shown) [Example 20] | 0.23
OC(c1cccs1)C(c1ccccn1)C(Nc1ccccn1)c1ccccc1 (stereo not shown) [Example 21] | 1.16
OC(c1cccs1)C(c1ccccn1)C(Nc1ccccn1)c1ccccc1 (stereo not shown) [Example 22] | 0.19
OC(c1cccs1)C(c1ccccn1)C(Nc1ccccn1)c1ccccc1 (stereo not shown) [Example 23] | 0.23
OC(c1cccs1)C(c1ccccn1)C(Nc1ccccn1)c1ccccc1 (stereo not shown) [Example 24] | 0.22
Cc1nc(C(O)C(c2ccccn2)C(Nc2ccccn2)c2ccccc2)c(C)o1 (stereo not shown) [Example 25] | 0.46
OC(c1ccc(Cl)s1)C(c1ccccn1)C(Nc1ccccn1)c1ccccc1 (stereo not shown) [Example 26] | 0.26

SMILES | Biological Test: quotient of the IC50Na values of the reference substance taurochenodeoxycholate (TCDC) and of the test substance
Cc1ccc(C(O)C(c2ccccn2)C(Nc2ccccn2)c2ccccc2)s1 (stereo not shown) [Example 27] | 1.02
Cc1noc(C)c1C(O)C(c1ccccn1)C(Nc1ccccn1)c1ccccc1 (stereo not shown) [Example 31] | 0.37
Cc1nc(C(O)C(c2ccccn2)C(Nc2ccccn2)c2ccccc2)sc1C (stereo not shown) [Example 33] | 0.24
COc1ccsc1C(O)C(c1ccccn1)C(Nc1ccccn1)c1ccccc1 (stereo not shown) [Example 37] | 9.53
Cc1nc(C)c(C(O)C(c2ccccn2)C(Nc2ccccn2)c2ccccc2N)s1 (stereo not shown) [Example 39] | 0.65
OC(c1cc(-c2ccccc2)on1)C(c1ccccn1)C(Nc1ccccn1)c1ccccc1 (stereo not shown) [Example 41] | 0.60
Cn1ccnc1C(O)C(c1ccccn1)C(Nc1ccccn1)c1ccccc1 (stereo not shown) [Example 42] | 0.87
Cc1noc(C)c1C(O)C(c1ccccn1)C(Nc1ccccn1)c1ccccc1[N+](=O)[O-] (stereo not shown) [Example 43] | 0.23
Cc1noc(C)c1C(O)C(c1ccccn1)C(Nc1ccccn1)c1ccccc1N (stereo not shown) [Example 44] | 0.74
OC(c1cc2ccccc2[nH]1)C(c1ccccn1)C(Nc1ccccn1)c1ccccc1 (stereo not shown) [Example 46] | 0.22
Cn1ncnc1C(O)C(c1ccccn1)C(Nc1ccccn1)c1ccccc1 (stereo not shown) [Example 47] | 0.35
Cc1nc(C(O)C(c2ccccn2)C(Nc2ccccn2)c2ccccc2N)c(C)o1 (stereo not shown) [Example 48] | 0.80
Cc1cc(C(O)C(c2ccccn2)C(Nc2ccccn2)c2ccccc2N)no1 (stereo not shown) [Example 49] | 0.77
Cc1nc(-c2ccncc2)sc1C(O)C(c1ccccn1)C(Nc1ccccn1)c1ccccc1 (stereo not shown) [Example 50] | 0.79
Cc1nc(-c2ccncc2)sc1C(O)C(c1ccccn1)C(Nc1ccccn1)c1ccccc1 (stereo not shown) [Example 51] | 0.52
Cc1nc(-c2ccncc2)sc1C(O)C(c1ccccn1)C(Nc1ccccn1)c1ccccc1 (stereo not shown) [Example 52] | 0.40
Nc1ccccc1C(Nc1ccccn1)C(c1ccccn1)C(O)c1ccon1 (stereo not shown) [Example 55] | 0.31
